{
  "source": "paper PMC5677563",
  "about": "(Inorganic chemistry, 2017)",
  "target": "T1, cytochrome c′ (AXCP) (Achromobacter xylosoxidans, UniProt P00138, L16G)",
  "T1 sequence (P00138 1-127 L16G)": "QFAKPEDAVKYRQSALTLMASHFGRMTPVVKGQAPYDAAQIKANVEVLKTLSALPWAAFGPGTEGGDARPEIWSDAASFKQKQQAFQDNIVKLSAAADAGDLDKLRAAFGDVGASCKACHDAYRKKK",
  "experiment": "UV-vis titration",
  "format": "binding",
  "data": [
    {"smiles": "O=NO", "note": "[nitrite]", "values": [
      {"measurement": "Kd", "result": "500 ± 150", "unit": "µM"}
    ]}
  ]
}
